Results published in patent US10251863B2, “Parasiticidal compositions comprising indole derivatives, methods and uses thereof” (MERIAL, INC., priority 2014, dated 2019).
Where two headings read alike, the source gives them in different places.

Experiments:
[1] = system: liver fluke newly-excysted juveniles (NEJs); test: fluke motility assay, digital image-based, newly-excysted juveniles (NEJs); assay type: cell-based, Fasciola hepatica; details: for inhibition of motility compared with TCBZ and TCBZ-SO / concentration effective on motility (effective only at): 18 h; for inhibition of motility compared with TCBZ and TCBZ-SO: final concentrations 10 μM-1 nM; for concentration effective on motility (effective only at): tested 10 μM-1 nM
Description: Further testing employed a fluke motility assay. Compounds 332, 336 and 351 were screened for activity against liver fluke newly-excysted juveniles (NEJs) in a digital image-based motility assay, based on measurement of the rate of change in worm length (μm/min) during peristaltic motility. Newly excised worms were immediately placed into a solution of drug in RPMI (final concentrations 10 μM-1 nM), alongside untreated and vehicle controls, and triclabendazole/triclabendazole sulfoxide (i.e., TCBZ/TCBZ-SO) at matching concentrations, for a period of 18 h. Each treatment group consisted of 15-20 NEJs. […] Each data point represents mean length change (μm/min) in an individual worm during a five minute recording period. Horizontal lines represent data set means. ****, p<0.0001; ***, p<0.001; **, p<0.01; *, p<0.05.

adult F. hepatica = test: in vitro test on adult F. hepatica (viability scale); assay type: cell-based; details: Fasciola hepatica, read-out: Effective in vitro concentration
Description: Representative compounds of formula (I) were tested in vitro against F. hepatica as follows. Adult F. hepatica (fluke) were collected from infected bovine livers obtained from a local abattoir (Basel, Switzerland). The worms were quickly washed with 0.9% (w/v) NaCl and placed in 6 or 12-well plates (Costar). Culture medium in each well contained RPMI 1640 (Gibco) at 37° C., which was supplemented with antibiotics (50 μg/ml streptomycin and 50 IU/ml penicillin; Gibco) and 80 μg/ml of a haemin solution. The haemin solution was prepared as follows: 5 mg haemin was dissolved in 1 ml of 0.1M aqueous solution of NaOH, and 3.95 ml of PBS (pH=7.4) and 0.05 ml of 1M HCl were added to adjust the pH to 7.1-7.4 (Keiser and Morson, 2008). Cultures were kept at 37° C. in an atmosphere of 5% CO2. To monitor the temporal effects of test compounds in vitro, 3 flukes were incubated for 72 h in the presence of 50 or 100 μg/ml of each test compound. At 24, 48, and 72 h, worms were examined using a dissecting microscope. For the adult worms, a viability scale ranging from 3 (normal movements) to 0 (death; no movement observed for two min using a microscope) was used.
Table 1 lists representative compounds of formula (I) of the present invention and their effective in vitro concentrations against F. hepatica. All compounds were tested in vitro on the adult stage of F. hepatica as described above. Each data point refers to at least two independent experiments having at least three worms per concentration.

[2] = 18 h in drug in RPMI, rate of change in worm length (μm/min)
[3] = adult stage of F. hepatica, incubated up to 72 h, viability scale 3 to 0, at least two independent experiments, at least three worms per concentration

With `FC(F)(F)c1ccc(-c2ccc3[nH]c(C(F)(F)F)cc3c2)c(Cl)c1` [Compound 332, 5-[2-chloro-4-(trifluoromethyl)phenyl]-2-(trifluoromethyl)-1H-indole] the “inhibition of motility compared with TCBZ and TCBZ-SO” value [1] was “more potent inhibition of motility than either TCBZ”, the “concentration that completely abolished motility” value [1, 2] was 1 µM and the minimal effective concentration (adult F. hepatica; [3]) was < 10 µg/mL.
`FC(F)(F)c1ccc(-c2ccc3cc(C(F)(F)F)[nH]c3c2)c(Cl)c1` [Compound 334, 6-[2-chloro-4-(trifluoromethyl)phenyl]-2-(trifluoromethyl)-1H-indole] was tested, and the minimal effective concentration (adult F. hepatica; [3]) was < 10 µg/mL.
In the case of `FC(F)(F)c1ccc(-c2cc3cc(C(F)(F)F)[nH]c3cc2Cl)c(Cl)c1` [Compound 336, 6-chloro-5-[2-chloro-4-(trifluoromethyl)phenyl]-2-(trifluoromethyl)-1H-indole], the “inhibition of motility compared with TCBZ and TCBZ-SO” value [1] is reported as “more potent inhibition of motility than either TCBZ”, the “concentration that significantly impacted motility” value [1, 2] is reported as 100 nM and the minimal effective concentration (adult F. hepatica; [3]) is reported as < 10 µg/mL.
With `Cc1cc2cc(-c3ccc(C(F)(F)F)cc3Cl)c(Cl)cc2[nH]1` [Compound 337, 6-chloro-5-[2-chloro-4-(trifluoromethyl)phenyl]-2-methyl-1H-indole] the minimal effective concentration (adult F. hepatica; [3]) was < 10 µg/mL.
For `CCc1cc2cc(-c3ccc(C(F)(F)F)cc3Cl)c(Cl)cc2[nH]1` [Compound 338, 6-chloro-5-[2-chloro-4-(trifluoromethyl)phenyl]-2-ethyl-1H-indole], the minimal effective concentration (adult F. hepatica; [3]) was < 10 µg/mL.
`CCCc1cc2cc(-c3ccc(C(F)(F)F)cc3Cl)c(Cl)cc2[nH]1` [Compound 339, 6-chloro-5-[2-chloro-4-(trifluoromethyl)phenyl]-2-propyl-1H-indole] was tested, and the minimal effective concentration (adult F. hepatica; [3]) was < 10 µg/mL.
`FC(F)(F)c1ccc(-c2cc3cc(C(F)(F)C(F)(F)F)[nH]c3cc2Cl)c(Cl)c1` [Compound 340, 6-chloro-5-[2-chloro-4-(trifluoromethyl)phenyl]-2-(pentafluoroethyl)-1H-indole] was tested, and the minimal effective concentration (adult F. hepatica; [3]) was < 10 µg/mL.
With `FC(F)(F)c1ccc(-c2cc3cc(C(F)(F)C(F)(F)C(F)(F)F)[nH]c3cc2Cl)c(Cl)c1` [Compound 341, 6-chloro-5-[2-chloro-4-(trifluoromethyl)phenyl]-2-(heptafluoropropyl)-1H-indole] the minimal effective concentration (adult F. hepatica; [3]) was > 10 µg/mL.
For `FC(F)(F)c1cc2cc(-c3ccc(Cl)cc3C(F)(F)F)c(Cl)cc2[nH]1` [Compound 342, 6-chloro-5-[4-chloro-2-(trifluoromethyl)phenyl]-2-(trifluoromethyl)-1H-indole], the minimal effective concentration (adult F. hepatica; [3]) was < 10 µg/mL.
In the case of `FC(F)(F)c1cc2cc(-c3ccc(Cl)cc3)c(Cl)cc2[nH]1` [Compound 343, 6-chloro-5-(4-chlorophenyl)-2-(trifluoromethyl)-1H-indole], the minimal effective concentration (adult F. hepatica; [3]) is reported as < 10 µg/mL.
For `Fc1ccc(-c2cc3cc(C(F)(F)F)[nH]c3cc2Cl)cc1` [Compound 344, 6-chloro-5-(4-fluorophenyl)-2-(trifluoromethyl)-1H-indole], the minimal effective concentration (adult F. hepatica; [3]) was < 10 µg/mL.
In the case of `FC(F)(F)c1ccc(-c2cc3cc(C(F)(F)F)[nH]c3cc2Cl)cc1` [Compound 345, 6-chloro-2-(trifluoromethyl)-5-[4-(trifluoromethyl)phenyl]-1H-indole], the minimal effective concentration (adult F. hepatica; [3]) is reported as < 10 µg/mL.
With `FC(F)(F)c1cc2cc(-c3ccccc3Cl)c(Cl)cc2[nH]1` [Compound 346, 6-chloro-5-(2-chlorophenyl)-2-(trifluoromethyl)-1H-indole] the minimal effective concentration (adult F. hepatica; [3]) was < 10 µg/mL.
In the case of `FC(F)(F)c1cc2cc(-c3cccc(Cl)c3)c(Cl)cc2[nH]1` [Compound 347, 6-chloro-5-(3-chlorophenyl)-2-(trifluoromethyl)-1H-indole], the minimal effective concentration (adult F. hepatica; [3]) is reported as ≤ 10 µg/mL.
`FC(F)(F)c1cc2cc(-c3ccc(Cl)c(Cl)c3)c(Cl)cc2[nH]1` [Compound 348, 6-chloro-5-(3,4-dichlorophenyl)-2-(trifluoromethyl)-1H-indole] was tested, and the minimal effective concentration (adult F. hepatica; [3]) was < 10 µg/mL.
For `FC(F)(F)c1cc2cc(-c3ccncc3)c(Cl)cc2[nH]1` [Compound 349, 6-chloro-5-(pyridin-4-yl)-2-(trifluoromethyl)-1H-indole], the minimal effective concentration (adult F. hepatica; [3]) was ≤ 10 µg/mL.
For `FC(F)(F)c1cc2cc(Oc3ccc(Cl)cc3)c(Cl)cc2[nH]1` [Compound 350, 6-chloro-5-(4-chlorophenoxy)-2-(trifluoromethyl)-1H-indole], the minimal effective concentration (adult F. hepatica; [3]) was ≤ 10 µg/mL.
For `FC(F)(F)c1cc2cc(Oc3ccccc3Cl)c(Cl)cc2[nH]1` [Compound 351, 6-chloro-5-(2-chlorophenoxy)-2-(trifluoromethyl)-1H-indole], the “inhibition of motility compared with TCBZ and TCBZ-SO” value [1] was “more potent inhibition of motility than either TCBZ”, the “concentration that completely abolished motility” value [1, 2] was 1 µM and the minimal effective concentration (adult F. hepatica; [3]) was < 10 µg/mL.
With `FC(F)(F)c1ccc(Oc2cc3cc(C(F)(F)F)[nH]c3cc2Cl)cc1` [Compound 352, 6-chloro-2-(trifluoromethyl)-5-[4-(trifluoromethyl)phenoxy]-1H-indole] the minimal effective concentration (adult F. hepatica; [3]) was > 10 µg/mL.
For `Cl.FC(F)(F)c1cc2cc(-c3ccncc3)c(Cl)cc2[nH]1` [Compound 354, 6-chloro-5-(pyridin-4-yl)-2-(trifluoromethyl)-1H-indole hydrochloride], the minimal effective concentration (adult F. hepatica; [3]) was > 2.5 µg/mL.
In the case of `N#Cc1ccc(-c2cc3cc(C(F)(F)F)[nH]c3cc2Cl)c(Cl)c1` [Compound 355, 3-chloro-4-[6-chloro-2-(trifluoromethyl)-1H-indol-5-yl]benzonitrile], the minimal effective concentration (adult F. hepatica; 72 h) is reported as > 2.5 µg/mL.
For `Fc1ccc(-c2cc3cc(C(F)(F)F)[nH]c3cc2Cl)c(Cl)c1` [Compound 356, 6-chloro-5-(2-chloro-4-fluorophenyl)-2-(trifluoromethyl)-1H-indole], the minimal effective concentration (adult F. hepatica; [3]) was < 10 µg/mL.
In the case of `FC(F)(F)c1cc2cc(-c3ccc(Cl)cc3Cl)c(Cl)cc2[nH]1` [Compound 357, 6-Chloro-5-(2,4-dichlorophenyl)-2-(trifluoromethyl)-1H-indole], the minimal effective concentration (adult F. hepatica; [3]) is reported as < 10 µg/mL.
For `O=C(O)c1ccccc1-c1cc2cc(C(F)(F)F)[nH]c2cc1Cl` [Compound 358, 2-[6-Chloro-2-(trifluoromethyl)-1H-indol-5-yl]benzoic acid], the minimal effective concentration (adult F. hepatica; [3]) was > 2.5 µg/mL.
With `N#Cc1ccccc1-c1cc2cc(C(F)(F)F)[nH]c2cc1Cl` [Compound 359, 2-[6-Chloro-2-(trifluoromethyl)-1H-indol-5-yl]benzonitrile] the minimal effective concentration (adult F. hepatica; [3]) was > 2.5 µg/mL.
For `CN(C)Cc1ccccc1-c1cc2cc(C(F)(F)F)[nH]c2cc1Cl` [Compound 360, ([2-[6-Chloro-2-(trifluoromethyl)-1H-indol-5-yl]phenyl]methyl)dimethylamine], the minimal effective concentration (adult F. hepatica; [3]) was > 2.5 µg/mL.
For `CN(C)Cc1ccccc1-c1cc2cc(C(F)(F)F)[nH]c2cc1Cl.Cl` [Compound 360-0A, ([2-[6-Chloro-2-(trifluoromethyl)-1H-indol-5-yl]phenyl]methyl)dimethylamine hydrochloride], the minimal effective concentration (adult F. hepatica; [3]) was > 2.5 µg/mL.
In the case of `FC(F)(F)c1cc2cc(-c3ccncc3Cl)c(Cl)cc2[nH]1` [Compound 361, 6-chloro-5-(3-chloropyridin-4-yl)-2-(trifluoromethyl)-1H-indole], the minimal effective concentration (adult F. hepatica; [3]) is reported as < 10 µg/mL.
In the case of `Cl.FC(F)(F)c1cc2cc(-c3ccncc3Cl)c(Cl)cc2[nH]1` [Compound 361-0A, 6-chloro-5-(3-chloropyridin-4-yl)-2-(trifluoromethyl)-1H-indole hydrochloride], the minimal effective concentration (adult F. hepatica; [3]) is reported as < 10 µg/mL.
For `Cl.FC(F)(F)c1cc2cc(Oc3ccncc3)c(Cl)cc2[nH]1` [Compound 362-0A, 6-chloro-5-(pyridin-4-yloxy)-2-(trifluoromethyl)-1H-indole hydrochloride], the minimal effective concentration (adult F. hepatica; [3]) was > 2.5 µg/mL.
For `CSc1nc2cc(Cl)c(Oc3cccc(Cl)c3Cl)cc2[nH]1` [TCBZ, triclabendazole, reference compound], the “concentration effective on motility (effective only at)” value [1] was 10 µM.
For `C[S+]([O-])c1nc2cc(Oc3cccc(Cl)c3Cl)c(Cl)cc2[nH]1` (centres unmarked) [TCBZ-SO, triclabendazole sulfoxide, reference compound], the “concentration effective on motility (effective only at)” value [1] was 10 µM.
